# Data reported in patent publication US10329289B2, “6,7-dihydro-5H-pyrrolo[3,4-B]pyridin-5-one allosteric modulators of the M4 muscarinic acetylcholine receptor” (Merck Sharp & Dohme Corp., priority 2015, dated 2019).
# Molecular target: T1, human M4 muscarinic acetylcholine receptor (Homo sapiens, UniProt P08173)
# T1 construct: expressed in transfected cells; host or cells: CHO-K1
# T1 sequence (P08173 1-479): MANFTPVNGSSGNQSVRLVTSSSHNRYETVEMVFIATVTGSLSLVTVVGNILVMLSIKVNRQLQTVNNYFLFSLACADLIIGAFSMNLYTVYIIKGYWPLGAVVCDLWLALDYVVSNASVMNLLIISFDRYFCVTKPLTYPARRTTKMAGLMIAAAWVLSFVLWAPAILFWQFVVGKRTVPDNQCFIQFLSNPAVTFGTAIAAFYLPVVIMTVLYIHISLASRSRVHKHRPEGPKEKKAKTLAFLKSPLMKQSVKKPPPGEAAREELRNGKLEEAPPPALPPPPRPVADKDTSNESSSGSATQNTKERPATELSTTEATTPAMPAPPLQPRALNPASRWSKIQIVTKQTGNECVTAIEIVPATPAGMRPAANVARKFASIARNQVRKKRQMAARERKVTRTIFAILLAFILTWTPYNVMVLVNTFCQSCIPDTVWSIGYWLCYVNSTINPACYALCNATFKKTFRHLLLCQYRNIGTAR
# Assay: human FLIPR-based M4 PAM assay (Ca2+ mobilization, CHO-K1 cells with human M4 receptor and Gαqi5)
# Format: cell-based
# Details: acetylcholine at 20% of maximum response, read-out: M4 PAM IP
# Procedure, shortened: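 Calcium-mobilization (FLIPR) readout in dye-loaded CHO-K1 cells co-expressing human M4 receptor and Gαqi5. Potentiation measured against acetylcholine at a concentration giving 20% of maximal response, with an optional 70% addition; the reported value is the curve inflection point from a 4-parameter logistic fit.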
row,Compound,EC50 [nM]
1,"Cc1cc2c(nc1N1CCC(Oc3ccc4c(c3)OC(F)(F)O4)CC1)CNC2=O [Example 208, 2-(4-((2,2-difluorobenzo[d][1,3]dioxol-5-yl)oxy)piperidin-1-yl)-3-methyl-6,7-dihydro-5H-pyrrolo[3,4-b]pyridin-5-one]",329
2,"Cc1cc2c(nc1N1CCC(Oc3ccc4c(c3)CS(=O)(=O)C4)CC1)CNC2=O [Example 208A, 2-(4-((2,2-dioxido-1,3-dihydrobenzo[c]thio-phen-5-yl)oxy)piperidin-1-yl)-3-methyl-6,7-dihydro-5H-pyrrolo[3,4-b]pyridin-5-one]",123
3,"COC(=O)c1c(C)c(N2CCC(Oc3ccc4c(c3)COC4)CC2)nc2c1C(=O)NC2 [Example 212, methyl 2-(4-((1,3-dihydro-2-benzofuran-5-yl)oxy)piperidin-1-yl)-3-methyl-5-oxo-6,7-dihydro-5H-pyrrolo[3,4-b]pyridine-4-carboxylate]",1830
4,"CCc1cc2c(nc1N1CCC(Oc3cnc4c(c3)COC4)CC1)CNC2=O [Example 212A, 2-(4-((5,7-dihydrofuro[3,4-b]pyridin-3-yl)oxy)piperidin-1-yl)-3-ethyl-6,7-dihydro-5H-pyrrolo[3,4-b]pyridin-5-one]",116
5,"CCc1cc2c(nc1N1CCC(Oc3ccc4c(c3)COC4)CC1)CNC2=O [Example 213, 2-(4-((1,3-dihydro-2-benzofuran-5-yl)oxy)piperidin-1-yl)-3-ethyl-6,7-dihydro-5H-pyrrolo[3,4-b]pyridin-5-one]",61
6,"CCc1cc2c(nc1N1CC[C@@H](Oc3cnc4c(c3)COC4)[C@H](F)C1)CNC2=O [Example 213A, 2-((3R,4R)-4-((5,7-dihydrofuro[3,4-b]pyridin-3-yl)oxy)-3-fluoropiperidin-1-yl)-3-ethyl-6,7-dihydro-5H-pyrrolo[3,4-b]pyridin-5-one]",126
7,"CCc1cc2c(nc1N1CC[C@@H](Oc3ccc4c(c3)COC4)[C@H](F)C1)CNC2=O [Example 217, 2-((3R,4R)-4-((1,3-dihydro-2-benzofuran-5-yl)oxy)-3-fluoropiperidin-1-yl)-3-ethyl-6,7-dihydro-5H-pyrrolo[3,4-b]pyridin-5-one]",42
8,"COc1ccc(OC2CCN(c3nc4c(c(C)c3C)C(=O)NC4)CC2)cn1 [Example 218, 2-(4-((6-Methoxypyridin-3-yl)oxy)piperidin-1-yl)-3,4-dimethyl-6,7-dihydro-5H-pyrrolo[3,4-b]pyridin-5-one]",38
9,"Cc1c(N2CCC(OCC3(C)CC3)CC2)nc2c(c1C)C(=O)NC2 [Example 219, 3,4-dimethyl-2-(4-((1-methylcyclopropyl)methoxy)piperidin-1-yl)-6,7-dihydro-5H-pyrrolo[3,4-b]pyridin-5-one]",25
10,"COc1ccc(OC2CCN(c3nc4c(cc3C3CC3)C(=O)NC4)CC2)cn1 [Example 221, 3-cyclopropyl-2-(4-((6-methoxypyridin-3-yl)oxy)piperidin-1-yl)-6,7-dihydro-5H-pyrrolo[3,4-b]pyridin-5-one]",1080
11,"C=Cc1cc2c(nc1N1CCC(Oc3ccc(OC)nc3)CC1)CNC2=O [Example 222, 2-(4-((6-methoxypyridin-3-yl)oxy)piperidin-1-yl)-3-vinyl-6,7-dihydro-5H-pyrrolo[3,4-b]pyridin-5-one]",50
12,"O=C1NCc2nc(N3CCC(Oc4ccc5c(c4)COC5)CC3)c(Br)cc21 [Example 226, 3-bromo-2-(4-((1,3-dihydro-2-benzofuran-5-yl)oxy)piperidin-1-yl)-6,7-dihydro-5H-pyrrolo[3,4-b]pyridin-5-one]",136
13,"Cc1c(N2CCC(Oc3cnc4c(c3)COC4)CC2)nc2c(c1C)C(=O)NC2 [Example 227, 2-(4-((5,7-dihydrofuro[3,4-b]pyridin-3-yl)oxy)piperidin-1-yl)-3,4-dimethyl-6,7-dihydro-5H-pyrrolo[3,4-b]pyridin-5-one]",435
14,"CCc1c(C)c(N2CCC(Oc3ccc(OC)nc3)CC2)nc2c1C(=O)NC2 [Example 229A, 4-ethyl-2-(4-((6-methoxypyridin-3-yl)oxy)piperidin-1-yl)-3-methyl-6,7-dihydro-5H-pyrrolo[3,4-b]pyridin-5-one]",600
15,"COc1ccc(OC2CCN(c3nc4c(cc3C(F)(F)F)C(=O)NC4)CC2)cn1 [Example 230, 2-(4-((6-Methoxypyridin-3-yl)oxy)piperidin-1-yl)-3-(trifluoromethyl)-6,7-dihydro-5H-pyrrolo[3,4-b]pyridin-5-one]",2120
16,"Cc1cc2c(nc1N1CCC(Oc3ccccc3)CC1)CN(CCO)C2=O [Example 231, 6-(2-Hydroxyethyl)-3-methyl-2-(4-phenoxypiperidin-1-yl)-6,7-dihydro-5H-pyrrolo[3,4-b]pyridin-5-one]",51
17,"CCN1Cc2nc(N3CCC(Oc4ccc(OC)nc4)CC3)c(C)cc2C1=O [Example 232, 6-Ethyl-2-(4-((6-methoxypyridin-3-yl)oxy)piperidin-1-yl)-3-methyl-6,7-dihydro-5H-pyrrolo[3,4-b]pyridin-5-one]",81
18,"CCC1c2nc(N3CCC(Oc4ccc(OC)nc4)CC3)c(C)cc2C(=O)N1CC (centres unmarked) [Example 233, 6,7-Diethyl-2-(4-((6-methoxypyridin-3-yl)oxy)piperidin-1-yl)-3-methyl-6,7-dihydro-5H-pyrrolo[3,4-b]pyridin-5-one]",394
19,"CCOc1ccc(OC2CCN(c3nc4c(cc3C)C(=O)N[C@H]4CCO)CC2)cn1 [Example 234A, (S)-2-(4-((6-Ethoxypyridin-3-yl)ox)piperidin-1-yl)-7-(2-hydroxyethyl)-3-methyl-6,7-dihydro-5H-pyrrolo[3,4-b]pyridin-5-one]",382

# More lines, in order of falling EC50, values ahead:
row,EC50 [nM],Compound
1,3520,"Cc1cc(N2CCC(OCC3(C)CC3)CC2)nc2c1C(=O)NC2 [Example 224, 4-methyl-2-(4-((1-methylcyclopropyl)methoxy)piperidin-1-yl)-6,7-dihydro-5H-pyrrolo[3,4-b]pyridin-5-one]"
2,2650,"Cc1cc2c(nc1N1CCC(Oc3ccc4c(c3)nc(C)n4C)CC1)CNC2=O [Example 209, 2-(4-((1,2-dimethyl-1H-benzo[d]imidazol-5-yl)oxy)piperidin-1-yl)-3-methyl-6,7-dihydro-5H-pyrrolo[3,4-b]pyridin-5-one]"
3,2580,"Cc1cc2c(nc1N1CCC(Oc3ccc4nc(C)n(C)c4c3)CC1)CNC2=O [Example 210, 2-(4-((1,2-dimethyl-1H-benzo[d]imidazol-6-yl)oxy)piperidin-1-yl)-3-methyl-6,7-dihydro-5H-pyrrolo[3,4-b]pyridin-5-one]"
4,344,"COc1ccc(OC2CCN(c3nc4c(cc3C#N)C(=O)NC4)CC2)cn1 [Example 223, 2-(4-((6-methoxypyridin-3-yl)oxy)piperidin-1-yl)-5-oxo-6,7-dihydro-5H-pyrrolo[3,4-b]pyridine-3-carbonitrile]"
5,288,"Cc1cc2c(nc1N1CCC(Oc3cnc4c(c3)OCC4)CC1)CNC2=O [Example 216A, 2-(4-((2,3-dihydrofuro[3,2-b]pyridin-6-yl)oxy)piperidin-1-yl)-3-methyl-6,7-dihydro-5H-pyrrolo[3,4-b]pyridin-5-one]"
6,216,"COC(=O)Cn1ncc2cc(OC3CCN(c4nc5c(cc4C)C(=O)NC5)CC3)ccc21 [Example 211, methyl 2-(5-((1-(3-methyl-5-oxo-6,7-dihydro-5H-pyrrolo[3,4-b]pyridin-2-yl)piperidin-4-yl)oxy)-1H-indazol-1-yl)acetate]"
7,109,"COCCOc1ccc(OC2CCN(c3nc4c(c(C)c3C)C(=O)NC4)CC2)cn1 [Example 220, 2-(4-((6-(2-methoxyethoxy)pyridin-3-yl)oxy)piperidin-1-yl)-3,4-dimethyl-6,7-dihydro-5H-pyrrolo[3,4-b]pyridin-5-one]"
8,93,"CCc1cc2c(nc1N1CC[C@@H](Oc3ccc4c(c3)COC4)[C@@H](F)C1)CNC2=O [Example 214, 2-((3S,4R)-4-((1,3-dihydro-2-benzofuran-5-yl)oxy)-3-fluoropiperidin-1-yl)-3-ethyl-6,7-dihydro-5H-pyrrolo[3,4-b]pyridin-5-one]"
9,86,"CCc1cc2c(nc1N1CCC(Oc3ccc(OC)nc3)CC1)CNC2=O [Example 228, 3-Ethyl-2-(4-((6-methoxypyridin-3-yl)oxy)piperidin-1-yl)-6,7-dihydro-5H-pyrrolo[3,4-b]pyridin-5-one]"
10,83,"Cc1cncc(OC2CCN(c3nc4c(c(C)c3C)C(=O)NC4)CC2)c1 [Example 220A, 3,4-dimethyl-2-(4-((5-methylpyridin-3-yl)oxy)piperidin-1-yl)-6,7-dihydro-5H-pyrrolo[3,4-b]pyridin-5-one]"
11,46,"Cc1c(N2CC[C@H](OCC3(C)CC3)[C@@H](F)C2)nc2c(c1C)C(=O)NC2 [Example 219A, 2-((3S,4S)-3-fluoro-4-((1-methylcyclopropyl)methoxy)piperidin-1-yl)-3,4-dimethyl-6,7-dihydro-5H-pyrrolo[3,4-b]pyridin-5-one]"
12,36,"CCc1cc2c(nc1N1CCC(OCC3(C)CC3)CC1)CNC2=O [Example 229, 3-ethyl-2-(4-((1-methylcyclopropyl)methoxy)piperidin-1-yl)-6,7-dihydro-5H-pyrrolo[3,4-b]pyridin-5-one]"
13,19,"Cc1c(N2CC[C@@H](Oc3ccc4c(c3)COC4)[C@@H](F)C2)nc2c(c1C)C(=O)NC2 [Example 225, 2-((3S,4R)-4-((1,3-dihydro-2-benzofuran-5-yl)oxy)-3-fluoropiperidin-1-yl)-3,4-dimethyl-6,7-dihydro-5H-pyrrolo[3,4-b]pyridin-5-one]"
